In patent US11072614B2, “Polymorphs of sepiapterin and salts thereof” (PTC Therapeutics MP, Inc., priority 2016, dated 2021):

How the values were obtained:
Format in all cases: physicochemical
[1] = Storage stability study of solid forms, form change by XRD (Example 11); details: 10% RH
Description: For X-ray powder diffraction analysis, a PANalytical Empyrean X-ray powder diffractometer was used. The parameters are as follows:
(§1) Form A and F samples were placed in chambers with silica gel to remove water (the relative humidity was measured to be ˜10% RH) at different temperatures. Form D samples were placed in chambers with water (relative humidity was estimated to be ˜100% RH) at different temperatures.
(§2) The HPLC purities and XRD patterns were obtained for each of Form A/F/D samples stored at various temperatures.

[2] = Physical form stability to grinding and sieving (XRD before and after)
Description: A sample of sepiapterin free base was obtained commercially. […] The sepiapterin sample contained particles with an average particle size over 100 μm. The XRD pattern was determined before and after grinding to reduce the particle size such that it passes through a 140 mesh screen. This polymorph of sepiapterin free base is referred to as Form A herein.

[3] = Storage stability study of solid forms, HPLC purity (Example 11); details: for % of Initial / Purity (area %): 10% RH
Description: as §1, §2

[4] = Storage stability of polymorphs, HPLC sepiapterin and impurity profile (Example 12); design: Impurity RRT 1.06 / Impurity RRT 1.08 / Impurity RRT 1.17 / Impurity RRT 1.21 / Impurity RRT 1.25 / Impurity RRT 0.62 / Impurity RRT 0.89 / Impurity RRT 0.95 / Impurity RRT 0.60: unit not given here
Description: Samples of sepiapterin free base polymorph Forms D, F, and A were stored at room temperature (RT), 35° C., and 50° C. The samples were analyzed by HPLC at 1 week and 4 week intervals. The HPLC parameters were as follows: [table]

[5] = 35° C./10% RH, 1 w, listed as Polymorph A
[6] = 35° C./10% RH, 4 w, listed as Polymorph A
[7] = 50° C./10% RH, 1 w, listed as Polymorph A
[8] = 50° C./10% RH, 4 w, listed as Polymorph A
[9] = RT/10% RH, 1 w, listed as Polymorph A
[10] = RT/10% RH, 4 w, listed as Polymorph A

C[C@H](O)C(=O)C1=Nc2c(nc(N)[nH]c2=O)NC1 [Form A, sepiapterin]
Form change ([1]; 35° C., storage 1 week): No | Form change ([1]; 35° C., storage 4 weeks): No | Form change ([1]; 50° C., storage 1 week): No | Form change ([1]; 50° C., storage 4 weeks): No | Form change ([1]; RT, storage 1 week): No | Form change ([1]; RT, storage 4 weeks): No | physical form stability to grinding and sieving [2]: confirms the physical form stability | % of Initial ([3]; 35° C., storage 1 week): 98.6% | Purity (area %) ([3]; 35° C., storage 1 week): 98.0 area % | % of Initial ([3]; 35° C., storage 4 weeks): 96.7% | Purity (area %) ([3]; 35° C., storage 4 weeks): 96.1 area % | % of Initial ([3]; 50° C., storage 1 week): 95.8% | Purity (area %) ([3]; 50° C., storage 1 week): 95.2 area % | % of Initial ([3]; 50° C., storage 4 weeks): 89.1% | Purity (area %) ([3]; 50° C., storage 4 weeks): 88.5 area % | % of Initial ([3]; RT, storage 1 week): 99.5% | Purity (area %) ([3]; RT, storage 1 week): 98.8 area % | % of Initial ([3]; RT, storage 4 weeks): 98.8% | Purity (area %) ([3]; RT, storage 4 weeks): 98.2 area % | purity of initial samples by HPLC ([3]; initial, before storage): 99.3 area % | stability as determined by HPLC (in words) ([3]; storage at RT, 35° C., 50° C., 1 and 4 weeks): significantly less stability | Impurity RRT 0.62 ([4]; 35° C./10% RH, 1 w): 0.24 | Impurity RRT 0.89 ([4]; 35° C./10% RH, 1 w): <0.05 | Impurity RRT 1.06 ([4]; 35° C./10% RH, 1 w): <0.05 | Impurity RRT 1.21 ([4]; 35° C./10% RH, 1 w): <0.05 | Impurity RRT 1.25 ([4]; 35° C./10% RH, 1 w): <0.05 | Impurity RRT 0.95 [4, 5]: 1.36 | Impurity RRT 1.08 [4, 5]: 0.28 | Impurity RRT 1.17 [4, 5]: 0.16 | Sepiapterin RRT 1.00 (amount of sepiapterin) [4, 5]: 97.97% | Impurity RRT 0.62 ([4]; 35° C./10% RH, 4 w): 1.03 | Impurity RRT 0.89 ([4]; 35° C./10% RH, 4 w): <0.05 | Impurity RRT 1.06 ([4]; 35° C./10% RH, 4 w): <0.05 | Impurity RRT 1.08 ([4]; 35° C./10% RH, 4 w): <0.05 | Impurity RRT 1.21 ([4]; 35° C./10% RH, 4 w): <0.05 | Impurity RRT 1.25 ([4]; 35° C./10% RH, 4 w): <0.05 | Impurity RRT 0.95 [4, 6]: 2.70 | Impurity RRT 1.17 [4, 6]: 0.16 | Sepiapterin RRT 1.00 (amount of sepiapterin) [4, 6]: 96.06% | Impurity RRT 0.62 ([4]; 50° C./10% RH, 1 w): 0.68 | Impurity RRT 0.89 ([4]; 50° C./10% RH, 1 w): <0.05 | Impurity RRT 1.06 ([4]; 50° C./10% RH, 1 w): 0.45 | Impurity RRT 1.21 ([4]; 50° C./10% RH, 1 w): <0.05 | Impurity RRT 1.25 ([4]; 50° C./10% RH, 1 w): <0.05 | Impurity RRT 0.95 [4, 7]: 3.48 | Impurity RRT 1.08 [4, 7]: 0.08 | Impurity RRT 1.17 [4, 7]: 0.16 | Sepiapterin RRT 1.00 (amount of sepiapterin) [4, 7]: 95.15% | Impurity RRT 0.62 ([4]; 50° C./10% RH, 4 w): 2.59 | Impurity RRT 0.89 ([4]; 50° C./10% RH, 4 w): 0.06 | Impurity RRT 1.06 ([4]; 50° C./10% RH, 4 w): <0.05 | Impurity RRT 1.17 ([4]; 50° C./10% RH, 4 w): 0.17 | Impurity RRT 1.21 ([4]; 50° C./10% RH, 4 w): 0.06 | Impurity RRT 1.25 ([4]; 50° C./10% RH, 4 w): 0.11 | Impurity RRT 0.95 [4, 8]: 7.67 | Impurity RRT 1.08 [4, 8]: 0.85 | Sepiapterin RRT 1.00 (amount of sepiapterin) [4, 8]: 88.49% | Sepiapterin RRT 1.00 (amount of sepiapterin) ([4]; 50° C./10% RH, 4 w, listed as polymorph A): 88.49% | Impurity RRT 0.89 ([4]; Initial): <0.05 | Impurity RRT 1.06 ([4]; Initial): <0.05 | Impurity RRT 1.08 ([4]; Initial): <0.05 | Impurity RRT 1.17 ([4]; Initial): 0.17 | Impurity RRT 1.21 ([4]; Initial): <0.05 | Impurity RRT 1.25 ([4]; Initial): <0.05 | Impurity RRT 0.62 ([4]; Initial, listed as Polymorph A): 0.08 | Impurity RRT 0.95 ([4]; Initial, listed as Polymorph A): 0.42 | Sepiapterin RRT 1.00 (amount of sepiapterin) ([4]; Initial, listed as Polymorph A): 99.33% | Sepiapterin RRT 1.00 (amount of sepiapterin) ([4]; Initial, listed as polymorph A): 99.33% | Impurity RRT 0.62 ([4]; RT/10% RH, 1 w): 0.16 | Impurity RRT 0.89 ([4]; RT/10% RH, 1 w): <0.05 | Impurity RRT 1.06 ([4]; RT/10% RH, 1 w): <0.05 | Impurity RRT 1.17 ([4]; RT/10% RH, 1 w): 0.16 | Impurity RRT 1.21 ([4]; RT/10% RH, 1 w): <0.05 | Impurity RRT 1.25 ([4]; RT/10% RH, 1 w): <0.05 | Impurity RRT 0.95 [4, 9]: 0.77 | Impurity RRT 1.08 [4, 9]: 0.11 | Sepiapterin RRT 1.00 (amount of sepiapterin) [4, 9]: 98.80% | Impurity RRT 0.62 ([4]; RT/10% RH, 4 w): 0.37 | Impurity RRT 0.89 ([4]; RT/10% RH, 4 w): <0.05 | Impurity RRT 1.06 ([4]; RT/10% RH, 4 w): <0.05 | Impurity RRT 1.08 ([4]; RT/10% RH, 4 w): <0.05 | Impurity RRT 1.17 ([4]; RT/10% RH, 4 w): 0.16 | Impurity RRT 1.21 ([4]; RT/10% RH, 4 w): <0.05 | Impurity RRT 1.25 ([4]; RT/10% RH, 4 w): <0.05 | Impurity RRT 0.95 [4, 10]: 1.29 | Sepiapterin RRT 1.00 (amount of sepiapterin) [4, 10]: 98.18%
